# Reference: patent US8993574B2, “Pyrrole antifungal agents” (F2G Ltd, priority 2008, dated 2015)
# Columns and labels:
# Assay type in all cases: cell-based
# Aspergillus flavus [1] = experiment: MIC, YAG medium; conditions: 24 h at 35° C, MIC banded into grades; for MIC: Aspergillus flavus, 24 h, read-out: MIC grade, A. flavus
# Procedure, shortened: (§1)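 Spores from 5-day Sabouraud agar cultures were suspended in YAG medium (1% glucose, 1% ammonium chloride, 0.5% yeast extract) at final inocula of 1−2×10^4 cfu/mL against doubling dilutions of compound (50-0.05 mg/L; 0.5-0.0005 mg/L on repeat). Plates were incubated 24 h at 35° C. MIC was the lowest concentration giving >70% growth inhibition by OD485 versus drug-free control.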
# [2] = system: Aspergillus fumigatus AF210; experiment: MIC, YAG medium; conditions: 24 h at 35° C, MIC banded into grades; for MIC: Aspergillus fumigatus, read-out: MIC grade, A. fumigatus 210
# Procedure, shortened: as §1
# [3] = system: Aspergillus fumigatus AF293; experiment: MIC, YAG medium; conditions: 24 h at 35° C, MIC banded into grades; for MIC: Aspergillus fumigatus, read-out: MIC grade, A. fumigatus
# Procedure, shortened: as §1
# Aspergillus niger [4] = experiment: MIC, YAG medium; conditions: 24 h at 35° C, MIC banded into grades; for MIC: Aspergillus niger, read-out: MIC grade, A. niger
# Procedure, shortened: as §1
# Aspergillus terreus AT49 [5] = experiment: MIC, YAG medium; conditions: 24 h at 35° C, MIC banded into grades; for MIC: Aspergillus terreus, read-out: MIC grade, A. terreus 49
# Procedure, shortened: as §1
# Aspergillus terreus AT4 [6] = experiment: MIC, YAG medium; conditions: 24 h at 35° C, MIC banded into grades; for MIC: Aspergillus terreus, read-out: MIC grade, A. terreus
# Procedure, shortened: as §1
# Aspergillus flavus [7] = experiment: MIC, RPMI medium; conditions: MIC banded into grades; for MIC: Aspergillus flavus, read-out: MIC grade, A. flavus
# Procedure, shortened: (§2)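 Broth microdilution in RPMI with 2% glucose, 0.135 M MOPS pH 7.0; compounds as doubling dilutions, 50-0.05 mg/L, inoculum 1−2×10^4 cfu/mL. Incubated 24-48 h at 35° C; growth by OD 485 nm. MIC is lowest concentration giving >80% growth inhibition versus drug-free control.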
# [8] = system: Aspergillus fumigatus AF210; experiment: MIC, RPMI medium; conditions: for MIC: Aspergillus fumigatus, AF210, MIC banded into grades, read-out: MIC grade, A. fumigatus 210; for MIC grade, A. fumigatus 210: MIC banded into grades
# Procedure, shortened: as §2
# [9] = system: Aspergillus fumigatus AF293; experiment: MIC, RPMI medium; conditions: for MIC: Aspergillus fumigatus, AF293, MIC banded into grades, read-out: MIC grade, A. fumigatus; for MIC grade, A. fumigatus: MIC banded into grades
# Procedure, shortened: as §2
# Aspergillus niger [10] = experiment: MIC, RPMI medium; conditions: MIC banded into grades; for MIC: Aspergillus niger, read-out: MIC grade, A. niger
# Procedure, shortened: as §2
# Aspergillus terreus AT49 [11] = experiment: MIC, RPMI medium; conditions: for MIC: Aspergillus terreus, AT49, MIC banded into grades, read-out: MIC grade, A. terreus 49; for MIC grade, A. terreus 49: MIC banded into grades
# Procedure, shortened: as §2
# Aspergillus terreus AT4 [12] = experiment: MIC, RPMI medium; conditions: for MIC: Aspergillus terreus, AT4, MIC banded into grades, read-out: MIC grade, A. terreus; for MIC grade, A. terreus: MIC banded into grades
# Procedure, shortened: as §2
SMILES,MIC (Aspergillus flavus [1]) [µg/mL],MIC [2] [µg/mL],MIC [3] [µg/mL],MIC (Aspergillus niger [4]) [µg/mL],MIC (Aspergillus terreus AT49 [5]) [µg/mL],MIC (Aspergillus terreus AT4 [6]) [µg/mL],MIC (Aspergillus flavus [7]) [µg/mL],MIC [8] [µg/mL],MIC [9] [µg/mL],MIC (Aspergillus niger [10]) [µg/mL],MIC (Aspergillus terreus AT49 [11]) [µg/mL],MIC (Aspergillus terreus AT4 [12]) [µg/mL],also measured
"CCCCOCn1c(C)cc(-c2ccccc2)c1C(=O)C(=O)Nc1ccc(N2CCN(c3cc(C)cc(C)n3)CC2)cc1 [Example 135, 2-(1-Butoxymethyl-5-methyl-3-phenyl-1H-pyrrol-2-yl)-N-{4-[4-(4,6-dimethyl-pyridin-2-yl)-piperazin-1-yl]-phenyl}-2-oxo-acetamide]",> 10,1 to 10,< 1,1 to 10,> 10,1 to 10,> 10,> 10,> 10,> 10,> 10,> 10,
"CCOCCCn1c(C)cc(-c2ccccc2)c1C(=O)C(=O)Nc1ccc(N2CCN(c3cc(C)cc(C)n3)CC2)cc1 [Example 136, N-{4-[4-(4,6-Dimethyl-pyridin-2-yl)-piperazin-1-yl]-phenyl}-2-[1-(3-ethoxy-propyl)-5-methy-3-phenyl-1H-pyrrol-2-yl]-2-oxo-acetamide]",,,,,,,,,,,,,"MIC grade, A. flavus (Aspergillus flavus [1]): 3 (A grade of 3 represents an MIC of less than 1 mg/L); MIC grade, A. fumigatus 210 [2]: 3 (A grade of 3 represents an MIC of less than 1 mg/L); MIC grade, A. fumigatus [3]: 3 (A grade of 3 represents an MIC of less than 1 mg/L); MIC grade, A. niger (Aspergillus niger [4]): 3 (A grade of 3 represents an MIC of less than 1 mg/L); MIC grade, A. terreus 49 (Aspergillus terreus AT49 [5]): 3 (A grade of 3 represents an MIC of less than 1 mg/L); MIC grade, A. terreus (Aspergillus terreus AT4 [6]): 2 (A grade of 2 represents an MIC of from 1 to 10 mg/L); MIC grade, A. flavus (Aspergillus flavus [7]): 2 (A grade of 2 represents an MIC of from 1 to 10 mg/L); MIC grade, A. fumigatus 210 [8]: 2 (A grade of 2 represents an MIC of from 1 to 10 mg/L); MIC grade, A. fumigatus [9]: 2 (A grade of 2 represents an MIC of from 1 to 10 mg/L); MIC grade, A. niger (Aspergillus niger [10]): 2 (A grade of 2 represents an MIC of from 1 to 10 mg/L); MIC grade, A. terreus 49 (Aspergillus terreus AT49 [11]): 2 (A grade of 2 represents an MIC of from 1 to 10 mg/L); MIC grade, A. terreus (Aspergillus terreus AT4 [12]): 2 (A grade of 2 represents an MIC of from 1 to 10 mg/L)"
"CSCn1c(C)cc(-c2ccccc2)c1C(=O)C(=O)Nc1ccc(N2CCN(c3cc(C)cc(C)n3)CC2)cc1 [Example 137, N-{4-[4-(4,6-Dimethyl-pyridin-2-yl)-piperazin-1-yl]-phenyl}-2-(5-methyl-1-methylsulfanylmethyl-3-phenyl-1H-pyrrol-2-yl)-2-oxo-acetamide]",< 1,< 1,< 1,< 1,< 1,< 1,1 to 10,1 to 10,< 1,1 to 10,1 to 10,1 to 10,
"COCCOCn1c(C)cc(-c2ccccc2)c1C(=O)C(=O)Nc1ccc(N2CCN(c3cc(C)cc(C)n3)CC2)cc1 [Example 138, N-{4-[4-(4,6-Dimethyl-pyridin-2-yl)-piperazin-1-yl]-phenyl}-2-[1-(2-methoxy-ethoxymethyl)-5-methyl-3-phenyl-1H-pyrrol-2-yl]-2-oxo-acetamide]",1 to 10,< 1,< 1,< 1,< 1,< 1,1 to 10,< 1,< 1,1 to 10,1 to 10,1 to 10,
"CCCOCn1c(C)cc(-c2ccccc2)c1C(=O)C(=O)Nc1ccc(N2CCN(c3cc(C)cc(C)n3)CC2)cc1 [Example 139, N-{4-[4-(4,6-Dimethyl-pyridin-2-yl)-piperazin-1-yl]-phenyl}-2-(5-methyl-3-phenyl-1-propoxymethyl-1H-pyrrol-2-yl)-2-oxo-acetamide]",1 to 10,< 1,< 1,< 1,< 1,1 to 10,> 10,1 to 10,1 to 10,1 to 10,1 to 10,1 to 10,
"CCCOCCn1c(C)cc(-c2ccccc2)c1C(=O)C(=O)Nc1ccc(N2CCN(c3cc(C)cc(C)n3)CC2)cc1 [Example 140, N-{4-[4-(4,6-Dimethyl-pyridin-2-yl)-piperazin-1-yl]-phenyl}-2-[5-methyl-3-phenyl-1-(2-propoxy-ethyl)-1H-pyrrol-2-yl]-2-oxo-acetamide]",1 to 10,< 1,1 to 10,1 to 10,1 to 10,1 to 10,> 10,> 10,> 10,> 10,> 10,> 10,
"COCC=CCn1c(C)cc(-c2ccccc2)c1C(=O)C(=O)Nc1ccc(N2CCN(c3cc(C)cc(C)n3)CC2)cc1 [Example 141, N-{4-[4-(4,6-Dimethyl-pyridin-2-yl)-piperazin-1-yl]-phenyl}-2-[1-(4-methoxy-but-2-enyl)-5-methyl-3-phenyl-1H-pyrrol-2-yl]-2-oxo-acetamide]",1 to 10,< 1,< 1,1 to 10,1 to 10,1 to 10,> 10,> 10,> 10,> 10,> 10,> 10,
"COCCCCn1c(C)cc(-c2ccccc2)c1C(=O)C(=O)Nc1ccc(N2CCN(c3cc(C)cc(C)n3)CC2)cc1 [Example 142, N-{4-[4-(4,6-Dimethyl-pyridin-2-yl)-piperazin-1-yl]-phenyl}-2-[1-(4-methoxy-butyl)-5-methy-3-phenyl-1H-pyrrol-2-yl]-2-oxo-acetamide]",,,,,,,,,,,,,"MIC grade, A. flavus (Aspergillus flavus [1]): 3 (A grade of 3 represents an MIC of less than 1 mg/L); MIC grade, A. fumigatus 210 [2]: 3 (A grade of 3 represents an MIC of less than 1 mg/L); MIC grade, A. fumigatus [3]: 3 (A grade of 3 represents an MIC of less than 1 mg/L); MIC grade, A. niger (Aspergillus niger [4]): 3 (A grade of 3 represents an MIC of less than 1 mg/L); MIC grade, A. terreus 49 (Aspergillus terreus AT49 [5]): 3 (A grade of 3 represents an MIC of less than 1 mg/L); MIC grade, A. terreus (Aspergillus terreus AT4 [6]): 3 (A grade of 3 represents an MIC of less than 1 mg/L); MIC grade, A. flavus (Aspergillus flavus [7]): 3 (A grade of 3 represents an MIC of less than 1 mg/L); MIC grade, A. fumigatus 210 [8]: 3 (A grade of 3 represents an MIC of less than 1 mg/L); MIC grade, A. fumigatus [9]: 3 (A grade of 3 represents an MIC of less than 1 mg/L); MIC grade, A. niger (Aspergillus niger [10]): 3 (A grade of 3 represents an MIC of less than 1 mg/L); MIC grade, A. terreus 49 (Aspergillus terreus AT49 [11]): 3 (A grade of 3 represents an MIC of less than 1 mg/L); MIC grade, A. terreus (Aspergillus terreus AT4 [12]): 3 (A grade of 3 represents an MIC of less than 1 mg/L)"
"Cc1cc(-c2ccccc2)c(C(=O)C(=O)Nc2ccc(N3CCCCC3)cc2)n1C [Example 143, 2-(1,5-Dimethyl-3-phenyl-1H-pyrrol-2-yl)-2-oxo-N-(4-piperidin-1-yl-phenyl)-acetamide]",< 1,< 1,< 1,< 1,< 1,< 1,< 1,< 1,< 1,< 1,< 1,< 1,
"Cc1cc(-c2ccccc2)c(C(=O)C(=O)Nc2ccc(N3CCN(Cc4ccccc4)CC3)cc2)n1C [Example 144, N-[4-(4-Benzyl-piperazin-1-yl)-phenyl]-2-(1,5-dimethyl-3-phenyl-1H-pyrrol-2-yl)-2-oxo-acetamide]",< 1,< 1,< 1,< 1,< 1,< 1,< 1,< 1,< 1,< 1,< 1,< 1,
